Consider 15 compounds from PubChem BioAssay (NCI).

SMILES strings stand for the structures.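 Results reflect a 48-hour exposure of cells in 96-well plates to compound at five concentrations. TGI marks complete inhibition of growth.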 Where only a bound is given, the exact number is not on record here.

Test systems include HCT-15 colon; HOP-92 NSCLC; HT29 colon; NCI-H23 lung; NCI/ADR-RES ovarian; OVCAR-5 ovarian; RXF 393 renal; SNB-75 CNS; T-47D breast; MDA-MB-435.
Assay in all cases: NCI tumour cell line growth inhibition, 48 h

Take `CCCCCCCCCCCCCCCC(=O)ON1C(=S)NC(C)(c2ccccc2)C1=S` (configuration not stated): the TGI in the assay on HCT-15 colon, in the assay with HOP-92 NSCLC, with HT29 colon, in the assay with NCI-H23 lung, in the assay with NCI/ADR-RES ovarian and with OVCAR-5 ovarian was more than 100 µM throughout. Further, the TGI with RXF 393 renal, in the assay with SNB-75 CNS and in the assay on T-47D breast was more than 100 µM each time.

In the case of `O=[N+]([O-])c1cccc(N=C2c3ccccc3CN2c2cccc([N+](=O)[O-])c2)c1`, the TGI in the assay on HCT-15 colon, in the assay on HOP-92 NSCLC, in the assay with HT29 colon, in the assay on MDA-MB-435, with NCI-H23 lung and with OVCAR-5 ovarian was more than 100 µM each time. Besides, the TGI with RXF 393 renal was more than 100 µM; in the assay on SNB-75 CNS, 73.5 µM; in the assay on T-47D breast it was more than 100 µM.

`CNNC1=NS(=O)(=O)c2cc(C)c(Cl)cc2S1`: the TGI in the assay with HCT-15 colon, in the assay with HT29 colon, in the assay on MDA-MB-435, in the assay on NCI-H23 lung, in the assay with NCI/ADR-RES ovarian and in the assay with OVCAR-5 ovarian was more than 10 µM throughout. The TGI in the assay on RXF 393 renal, in the assay on SNB-75 CNS and with T-47D breast was more than 10 µM throughout.

In the case of `CC(=O)OCC1OC(Nc2ccc3nc(C)n(-c4cccc(C)c4)c(=O)c3c2)C(OC(C)=O)C(OC(C)=O)C1OC(C)=O` (configuration not stated), the TGI in the assay on HCT-15 colon, in the assay with HT29 colon, with MDA-MB-435, in the assay with NCI-H23 lung, with NCI/ADR-RES ovarian and in the assay on OVCAR-5 ovarian was more than 62.5 µM in each case. For the same compound, the TGI in the assay with RXF 393 renal, in the assay on SNB-75 CNS and in the assay on T-47D breast was more than 62.5 µM throughout.

On to `O=C(O)c1cccc(S(=O)(=O)NN2C(=O)CSC2c2ccccc2)c1` (configuration not stated), for which the TGI in the assay on HCT-15 colon, in the assay with HOP-92 NSCLC, in the assay on HT29 colon, with MDA-MB-435, in the assay on NCI-H23 lung and in the assay on OVCAR-5 ovarian was more than 100 µM throughout. Further, the TGI with RXF 393 renal, with SNB-75 CNS and in the assay on T-47D breast was more than 100 µM in each case.

On to `O=S(=O)(c1cc(Cl)ccc1Cl)N1CCN(c2ccc(Cl)c(Cl)c2)CC1`, for which the TGI in the assay with HCT-15 colon was more than 100 µM; in the assay on HOP-92 NSCLC it was 35.4 µM; in the assay with HT29 colon, more than 100 µM; in the assay with NCI-H23 lung it was more than 100 µM; with OVCAR-5 ovarian, more than 100 µM; in the assay with RXF 393 renal, 52.2 µM. In addition, the figures for the TGI in the assay with SNB-75 CNS and in the assay with T-47D breast were 33.1 µM and more than 100 µM, respectively.

As for `Cc1cccc(/C=N/NC(=S)NCc2ccccn2)n1`, the TGI is more than 100 µM in the assay with HCT-15 colon; 98.5 µM in the assay with HOP-92 NSCLC; more than 100 µM in the assay on HT29 colon; more than 100 µM in the assay on MDA-MB-435; more than 100 µM in the assay with NCI-H23 lung; more than 75.4 µM in the assay on NCI/ADR-RES ovarian. The TGI is more than 100 µM with OVCAR-5 ovarian, 73.6 µM with SNB-75 CNS and more than 100 µM in the assay on T-47D breast.

As to `Cc1nc2c(o1)C(=O)c1ccccc1C2=NC1CCCCC1N` (configuration not stated), the TGI came to 1.84 µM with HCT-15 colon; 1.97 µM with HOP-92 NSCLC; 5.33 µM in the assay with HT29 colon; 0.302 µM with MDA-MB-435; 0.276 µM in the assay with NCI-H23 lung; 1.2 µM in the assay on NCI/ADR-RES ovarian. In addition, the TGI turned out to be 3.24 µM with OVCAR-5 ovarian, 0.564 µM in the assay with SNB-75 CNS and 1.86 µM in the assay on T-47D breast.

As to `COC(=O)C1Cc2ccc(C)cc2C1=O` (configuration not stated), the TGI in the assay with HCT-15 colon, in the assay on HT29 colon, in the assay with MDA-MB-435, in the assay on NCI-H23 lung, in the assay on NCI/ADR-RES ovarian and in the assay with OVCAR-5 ovarian was more than 100 µM each time. In addition, the TGI with SNB-75 CNS and in the assay with T-47D breast was more than 100 µM each time.

As for `CSc1c(C(=O)Nc2ccc(C)cc2)c(N)nn1-c1ccccc1`, the TGI with HCT-15 colon was more than 100 µM; in the assay with HOP-92 NSCLC it was 88.1 µM; in the assay on HT29 colon, more than 100 µM; in the assay on MDA-MB-435 it was more than 100 µM; with NCI-H23 lung, more than 100 µM; in the assay with OVCAR-5 ovarian, more than 100 µM. The TGI is 75.3 µM with RXF 393 renal and more than 100 µM in the assay on T-47D breast.

On to `O=C(O)C(Cc1ccc2c(c1)CCC2)(Cc1ccc2c(c1)CCC2)C(=O)O`, for which the TGI with HCT-15 colon, in the assay on HT29 colon, in the assay on MDA-MB-435, with NCI-H23 lung, with NCI/ADR-RES ovarian and in the assay on OVCAR-5 ovarian was more than 100 µM each time. The TGI in the assay on RXF 393 renal, with SNB-75 CNS and in the assay on T-47D breast was more than 100 µM throughout.

Turning to `CCCCOC(=O)C(=O)C(CC(C(=O)Cc1ccccc1)c1ccccc1)C(=O)C=C(C)C` (configuration not stated), the TGI with HCT-15 colon, with HOP-92 NSCLC, with HT29 colon, with MDA-MB-435, with NCI-H23 lung and in the assay with NCI/ADR-RES ovarian was more than 100 µM each time. Also, the TGI in the assay with OVCAR-5 ovarian, in the assay on RXF 393 renal and in the assay on SNB-75 CNS was more than 100 µM throughout.

With `Clc1ccccc1/C=C/c1nsc(/C=C/c2ccccc2Cl)n1`, the TGI in the assay with HCT-15 colon, with HOP-92 NSCLC, in the assay with HT29 colon, in the assay with MDA-MB-435, in the assay with NCI/ADR-RES ovarian and with OVCAR-5 ovarian was more than 100 µM throughout. Also, the TGI with RXF 393 renal was more than 100 µM; in the assay with SNB-75 CNS it was more than 100 µM; in the assay on T-47D breast, 42.8 µM.

`COc1cc2c(cc1OC)C1Cc3ccccc3CCN1CC2` (configuration not stated): the TGI in the assay on HCT-15 colon, with HOP-92 NSCLC, with HT29 colon, in the assay with MDA-MB-435, in the assay with NCI-H23 lung and in the assay on NCI/ADR-RES ovarian was more than 100 µM in each case. Further, the TGI in the assay with OVCAR-5 ovarian, in the assay with SNB-75 CNS and in the assay on T-47D breast was more than 100 µM each time.

Regarding `CC(C)Nc1[nH]c(C(=O)c2ccccc2)c(N)c1C(=S)Nc1ccccc1`, the TGI is more than 100 µM with HCT-15 colon; more than 100 µM with HOP-92 NSCLC; 91.3 µM in the assay on HT29 colon; 99.1 µM in the assay with MDA-MB-435; more than 100 µM in the assay on NCI-H23 lung; more than 100 µM with NCI/ADR-RES ovarian. Besides, the TGI with OVCAR-5 ovarian, with SNB-75 CNS and in the assay with T-47D breast was more than 100 µM each time.
